pKi: −log10 of the molar value.
Each compound was assayed against Prothrombin (Homo sapiens, UniProt P00734) (assay: Enzyme Inhibition Assay).
Protocol: (§1) The enzyme activities were determined kinetically as the initial rate of cleavage of a peptide p-nitroanilide. Km for enzyme and substrate was determined using four substrate dilutions. Enzyme was incubated with test compounds for 10 min; the reaction was then started by the addition of the substrate. […] IC50 values for inhibitors were determined from the dose response curve by fitting the data to the Hill equation. Ki,app values were calculated as the IC50/2, with the IC50 value determined at a substrate concentration equal to Km

pKi	Compound
< 5.30	Cc1ccc(NC(=O)c2sc3ccccc3c2Cl)c(C(=O)Nc2ccc(Cl)cc2)c1 [3-chloro-N-{2-[(4-chlorophenyl)carbamoyl]-4-methylphenyl}-1-benzothiophene-2-carboxamide]
5.49	CCCN1Cc2sc(C(=O)Nc3ccc(Cl)cc3C(=O)Nc3ccc(Cl)cc3)c(Cl)c2C1 [3-chloro-N-{4-chloro-2-[(4-chlorophenyl)carbamoyl]phenyl}-5-propyl-4H,5H,6H-thieno[2,3-c]pyrrole-2-carboxamide]

These compounds were tested against T1, Serine protease 1 (Bos taurus, UniProt P00760) (assay: Enzyme Inhibition Assay).
T1 sequence (P00760 whole entry): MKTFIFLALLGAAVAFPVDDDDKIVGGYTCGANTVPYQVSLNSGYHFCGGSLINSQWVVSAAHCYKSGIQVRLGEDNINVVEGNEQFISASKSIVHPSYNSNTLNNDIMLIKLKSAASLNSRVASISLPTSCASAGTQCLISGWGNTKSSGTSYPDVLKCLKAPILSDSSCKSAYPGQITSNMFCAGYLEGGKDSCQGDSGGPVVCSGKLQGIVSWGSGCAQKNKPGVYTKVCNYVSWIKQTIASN
Protocol: as §1

pKi	Compound
< 5.30	COCCOCCOCc1csc(C(=O)Nc2ccc(Cl)cc2C(=O)Nc2ccc(Cl)cc2)c1Cl [3-chloro-N-{4-chloro-2-[(4-chlorophenyl)carbamoyl]phenyl}-4-{[2-(2-methoxyethoxy)ethoxy]methyl}thiophene-2-carboxamide]
< 5.30	CC1(C)OCC(COCc2csc(C(=O)Nc3ccc(Cl)cc3C(=O)Nc3ccc(Cl)cc3)c2Cl)O1 (stereo unspecified) [3-chloro-N-{4-chloro-2-[(4-chlorophenyl)carbamoyl]phenyl}-4-{[(2,2-dimethyl-1,3-dioxolan-4-yl)methoxy]methyl}thiophene-2-carboxamide]
< 5.30	CN(Cc1csc(C(=O)Nc2ccc(Cl)cc2C(=O)Nc2ccc(Cl)cc2)c1Cl)CC(O)CO (stereo unspecified) [3-chloro-N-{4-chloro-2-[(4-chlorophenyl)carbamoyl]phenyl}-4-{[(2,3-dihydroxypropyl)(methyl)amino]methyl}thiophene-2-carboxamide]
< 5.30	CN(CCO)Cc1csc(C(=O)Nc2ccc(Cl)cc2C(=O)Nc2ccc(Cl)cc2)c1Cl [3-chloro-N-{4-chloro-2-[(4-chlorophenyl)carbamoyl]phenyl}-4-{[(2-hydroxyethyl)(methyl)amino]methyl}thiophene-2-carboxamide]
< 5.30	CCOC(=O)CN(C)Cc1csc(C(=O)Nc2ccc(Cl)cc2C(=O)Nc2ccc(Cl)cc2)c1Cl [ethyl 2-({[4-chloro-5-({4-chloro-2-[(4-chlorophenyl)carbamoyl]phenyl}carbamoyl)thiophen-3-yl]methyl}(methyl)amino)acetate]

The remaining lines, values behind:

Compound	pKi
Cc1ccc(NC(=O)c2sc3ccccc3c2Cl)c(C(=O)Nc2ccc(Cl)cc2)c1 [3-chloro-N-{2-[(4-chlorophenyl)carbamoyl]-4-methylphenyl}-1-benzothiophene-2-carboxamide]	< 5.30
O=C(Nc1ccc(Cl)cc1)c1cc(Cl)ccc1NC(=O)c1sc(CN2CCOCC2)cc1Cl [3-chloro-N-{4-chloro-2-[(4-chlorophenyl)carbamoyl]phenyl}-5-(morpholin-4-ylmethyl)thiophene-2-carboxamide]	< 5.30
CN1CCN(Cc2cc(Cl)c(C(=O)Nc3ccc(Cl)cc3C(=O)Nc3ccc(Cl)cc3)s2)CC1 [3-chloro-N-{4-chloro-2-[(4-chlorophenyl)carbamoyl]phenyl}-5-[(4-methylpiperazin-1-yl)methyl]thiophene-2-carboxamide]	< 5.30
CN1CCN(Cc2ccc3c(Cl)c(C(=O)Nc4ccc(Cl)cc4C(=O)Nc4ccc(Cl)cc4)sc3c2)CC1 [3-chloro-N-{4-chloro-2-[(4-chlorophenyl)carbamoyl]phenyl}-6-[(4-methylpiperazin-1-yl)methyl]-1-benzothiophene-2-carboxamide]	< 5.30
CN(C)Cc1ccc2c(Cl)c(C(=O)Nc3ccc(Cl)cc3C(=O)Nc3ccc(Cl)cc3)sc2c1 [3-chloro-N-{4-chloro-2-[(4-chlorophenyl)carbamoyl]phenyl}-6-[(dimethylamino)methyl]-1-benzothiophene-2-carboxamide]	< 5.30
CN1CCN(Cc2c(C(=O)Nc3ccc(Cl)cc3C(=O)Nc3ccc(Cl)cc3)sc3ccccc23)CC1 [N-{4-chloro-2-[(4-chlorophenyl)carbamoyl]phenyl}-3-[(4-methylpiperazin-1-yl)methyl]-1-benzothiophene-2-carboxamide]	< 5.30
CN(C)Cc1c(C(=O)Nc2ccc(Cl)cc2C(=O)Nc2ccc(Cl)cc2)sc2ccccc12 [N-{4-chloro-2-[(4-chlorophenyl)carbamoyl]phenyl}-3-[(dimethylamino)methyl]-1-benzothiophene-2-carboxamide]	< 5.30
CN1CCN(Cc2csc(C(=O)Nc3ccc(Cl)cc3C(=O)Nc3ccc(Cl)cc3)c2Cl)CC1 [thiophene-containing non-amidine inhibitor, 31]	< 5.30

These compounds were tested against Coagulation factor X (Homo sapiens, UniProt P00742) (assay: Enzyme Inhibition Assay).
Protocol: as §1

Coagulation factor X, sequence (P00742 41-179 limits assumed): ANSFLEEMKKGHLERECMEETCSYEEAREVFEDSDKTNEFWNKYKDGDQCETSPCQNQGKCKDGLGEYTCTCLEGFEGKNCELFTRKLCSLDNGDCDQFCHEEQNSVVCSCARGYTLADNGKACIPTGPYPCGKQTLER
Coagulation factor X, sequence (P00742 235-488 limits assumed): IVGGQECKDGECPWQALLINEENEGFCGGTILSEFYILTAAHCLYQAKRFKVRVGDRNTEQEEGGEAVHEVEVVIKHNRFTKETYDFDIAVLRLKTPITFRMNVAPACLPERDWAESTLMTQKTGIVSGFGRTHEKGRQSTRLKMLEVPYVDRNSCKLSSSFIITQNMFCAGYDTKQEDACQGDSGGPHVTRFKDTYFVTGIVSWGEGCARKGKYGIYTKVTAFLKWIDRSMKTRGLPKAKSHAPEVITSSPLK

pKi	Compound
8.66	CCCN1Cc2sc(C(=O)Nc3ccc(Cl)cc3C(=O)Nc3ccc(Cl)cc3)c(Cl)c2C1 [3-chloro-N-{4-chloro-2-[(4-chlorophenyl)carbamoyl]phenyl}-5-propyl-4H,5H,6H-thieno[2,3-c]pyrrole-2-carboxamide]

Reference: BindingDB's records for doi:10.1016/j.bmc.2006.12.019 (Berlex, 2007)
